Key:
CaSki = test: DNA fragmentation, Cell Death Detection ELISA (cytoplasmic nucleosomal enrichment); assay type: cell-based, human
Procedure: (§1) HeLa, 9 μM] at various time points. Each experiment included a set of untreated control cells (Media with DMSO alone). The enrichment of the cytoplasm of treated cells by mono- and oligonucleosomes are used to study whether enhanced DNA fragmentation is induced by diarylpentanoid treatment. This determination was made following the manufacturer’s instructions of the Cell Death Detection ELISA^PLUS kit (Roche Diagnostics, Mannheim, Germany). […] Following treatment, the cells were incubated in lysis buffer and centrifuged, after which the supernatant was transferred to streptavidin coated plates and shaken with the provided immunoreagent (mixture of anti-DNA-POD and anti-histone biotin) for 2 h. […] Enrichment factor, defined as the release of mono- and oligonucleosomes into the cytoplasm, was calculated using the formula below: (4) Enrichment factor =Absorbance of Test − Absorbance of Blank (substrate only)/Absorbance of Control − Absorbance of Blank (substrate only)

MRC9 = test: MTT cell viability (cytotoxicity) assay on non-cancerous lung fibroblasts, 72 h; assay type: cell-based; details: Homo sapiens, MRC9; MTT, 72 h, non-cancerous lung fibroblasts; read-out: EC50 (Mean ± S.E.M.) MRC9
Procedure: HeLa, CaSki and MRC9 cells were plated in triplicate wells in 96-well flat-bottomed tissue culture plates (Nunc, Roskilde, Denmark) with 10^5 cells per mL in 100 μL culture media with working concentrations of diarylpentanoid treatment ranging from 1.6 to 100 μM. Control-treated wells contained cells incubated in media with equal volumes of DMSO (0.2%). Cells were treated for 72 h for dose-dependent cytotoxicity assays and at 24, 48 and 72 h for anti-proliferative (time-dependent) assays. In order to assess cell viability and anti-proliferative activity after diarylpentanoid treatment, the colorimetric 3-(4,5-dimethylthiazol-2-yl)-2,5-diphenyltetrazolium bromide (MTT) assay was performed as previously described with modifications. The media was aspirated and cells were incubated in 100 µL complete medium with 0.5 mg/mL MTT solution for 4 h in the dark to allow metabolism of MTT by cellular mitochondrial dehydrogenases. The excess MTT was aspirated and the formazan crystals formed were dissolved by the addition of 100 µL of DMSO. The absorbance of dark blue formazan was read at 570/650 nm wavelengths using a microplate reader (Bio-Rad Benchmark Plus Microplate Spectrophotometer, Hercules, CA, USA). Triplicate absorbance values were averaged and the effect of the compounds on growth inhibition was assessed as percentage cell viability as follows: (1) Percentage cell viability =Absorbance of Test − Absorbance of Blank (media only)/Absorbance of Control − Absorbance of Blank (media only) × 100 where, absorbance = optical density of sample, O.D.; control = untreated sample; test = treated sample.
The results were analysed using GraphPad Prism version 6.00 for Windows (GraphPad Software, La Jolla, CA, USA). Using percentage cell viability Equation (1), log dose–response curves were constructed, from which the half maximal effective concentration, EC50 for each replicate was determined. Overall EC50 was determined by taking the average EC50 from three independent experiments. […] (3) Selectivity Index (SX) =EC50 (MRC9)/EC50 (Cancer cell line) × 100

[1] = system: caspase-3 activity in HeLa cells; test: Caspase-3 colorimetric assay (relative caspase-3 activity); assay type: cell-based, human; details: all time points and doses (3, 6, 9 μM)
Procedure: (§2) HeLa, 9 μM] at various time points. Each experiment included a set of untreated control cells (Media with DMSO alone). Caspase-3 activity was assessed using the Caspase-3 Colorimetric Assay Kit (Sigma Aldrich), following the manufacturer’s instructions. […] Following treatment, the cells were washed in PBS and suspended in a lysis buffer (50 mM HEPES pH 7.4, 5 mM CHAPS, 5 mM DTT) for 25 min at a concentration of 10^7 cells per 100 μL of buffer. Lysed cells were centrifuged at 16,000× g, 4 °C for 30 min. Lysate protein concentration was determined using the Cayman Chemical Protein Determination (Cayman Chemical Company, Ann Arbor, MI, USA) kit which is a colorimetric method for total protein quantification based on the Bradford method. In short, 100 μL of protein samples was diluted in 96-well plates and 100 μL of the assay reagent was added to the samples, incubated for 5 min and the absorbance measured at 595 nm. Protein concentrations were calculated from a regression line fit to a series of standard protein dilutions assays on the same plate as the unknown samples. […] The effect of Ac-DEVD-CHO, a caspase-3 inhibitor, on caspase-3 activity was studied simultaneously. As per the manufacturer’s instructions, 10 μL of the inhibitor Ac-DEVD-CHO (200 μM) was added to a well containing the assay buffer, followed immediately by the cell lysate and 10 μL of the substrate Ac-DEVD-pNA (2 mM). Caspase-3 activity was assessed by measuring the absorbance released by the pNA molecule at 405 nm using a Bio-Rad Benchmark Plus Microplate Spectrophotometer. Caspase-3 activity was expressed by measuring the ratio of the mean caspase-3 activity of treated cells relative to untreated cells.

[2] = system: caspase-3 activity in CaSki cells; test: as above; assay type: cell-based, human
Procedure: as §2

[3] = system: LNCaP prostate cancer cells; set-up: method as in PMID 21796654; details: cited from earlier work
HeLa = test: DNA fragmentation, Cell Death Detection ELISA (cytoplasmic nucleosomal enrichment); assay type: cell-based, human
Procedure: as §1, with “Each” for “HeLa, 9 μM] at various time points. Each”

## O=C(C=Cc1ccccc1O)C=Cc1ccccc1O [MS17, 1,5-bis(2-hydroxyphenyl)-1,4-pentadiene-3-one]
CaSki; 4 μM, 24 h, vs untreated
  increase in nucleosome enrichment: 5 fold
CaSki; 48 h
  enrichment factor: no significant difference between doses
CaSki; 72 h
  enrichment factor: no significant reduction
MRC9
  EC50: 4.6 ± 1.2 µM
[1]
  relative caspase-3 activity: no significant differences
[2]; 2 μM
  relative caspase-3 activity: low caspase-3 activity
[2]; 4 μM, 48 h
  relative caspase-3 activity: increased activity
[2]; 6 μM, 24 h, treated over untreated
  relative caspase-3 activity: threefold increase
[3]
  concentration causing significant cell death: > 10 µM
HeLa; 6 μM, 24 h, vs untreated
  increase in nucleosome enrichment: 2.2 fold
HeLa; 6 μM, 48 h, vs untreated
  increase in enrichment factor: approximately two-fold
HeLa; 6 and 9 μM, 72 h
  enrichment factor: significant reduction of enrichment factor

— PMC6331910, “The Curcumin Analogue 1,5-Bis(2-hydroxyphenyl)-1,4-pentadiene-3-one Induces Apoptosis and Downregulates E6 and E7 Oncogene Expression in HPV16 and HPV18-Infected Cervical Cancer Cells” (Molecules, 2015)
